Laboratory results reported in patent US4067982A, “Aryl-substituted piperazinyl-alkylamino-uracils, -uracil ethers and -uracil thioethers as therapeutics” (priority 1976, dated 1978).

Experiments:
[1] = test system: blood pressure, circulatory system and central nervous system; conditions: recognized; cited from earlier work
[2] = test system: carotid sinus relaxation reflex of the narcotized cat; experiment: Inhibition of the carotid sinus reflex, narcotized cat; assay type: in vivo; conditions: Felis catus, iv; for ED30: 30% inhibition; for ED50: 50% inhibition
[3] = test system: blood pressure increasing effect of adrenaline; experiment: Inhibition of the pressor effect of adrenaline, despinalized rat; assay type: in vivo; conditions: iv, 0.001 mg/kg i.v. adrenaline, read-out: 50% inhibition of the press. effect after i.v. administration of adrenaline with
[4] = test system: blood pressure increasing effect of noradrenaline; experiment: Inhibition of the pressor effect of noradrenaline, despinalized rat; assay type: in vivo; conditions: iv, 0.001 mg/kg i.v. noradrenaline, read-out: 50% inhibition of the press. effect after i.v. administration of noradrenaline with
[5] = test system: blood pressure of the narcotized cat; experiment: Lowering of the blood pressure, narcotized cat; assay type: in vivo; conditions: Felis catus, iv; for ED30: 30% lowering; for ED50: 50% lowering
[6] = test system: blood pressure of the narcotized rat; experiment: Lowering of the blood pressure, narcotized rat; assay type: in vivo; parameters: unit not given here; conditions: 30% lowering
mouse [7] = experiment: Inhibition of the motility in the tread wheel, mouse; assay type: in vivo; conditions: ip, 3 h; mouse, 25 mg/kg i.p.; 5 mg/kg d-amphetamine-sulfate; 180 minutes; read-out: % Inhibition of the motility in the tread wheel by 25 mg/kg i.p.
mouse [8] = experiment: Prolongation of sleep induced by hexobarbital, mouse; assay type: in vivo; conditions: ip; mouse, 15 mg/kg i.p.; 75 mg/kg hexobarbital; vs controls; read-out: % prolongation of sleep induced by hexobarbital by 15 mg/kg i.p.
Experimental: d = Percent prolongation of the duration of sleep of mice, which were administered 75 mg/kg hexobarbital, compared with the sleep duration of controls.

mouse [9] = experiment: PD50, rotating rod, mouse; assay type: in vivo; conditions: ip; mouse, i.p.; dose at which an average of 50% of the mice fall from a rotating rod; read-out: PD50
Excerpt: The centrally inhibiting effect of the piperazinyl uracils of the invention in the mouse are apparent from Table IV. […] The selective action of the compounds of the invention on the central blood pressure mechanism can be used advantageously in human therapy in the treatment of hypertonic diseases.
a = Dose, at which an average of 50% of the mice fall from a rotating rod.

patients = experiment: Clinical test, compatibility and sensory functions in patients; assay type: in vivo, human; conditions: two female and three male patients; 10, 20, 40 and 60 mg oral
Experimental: (§1) Clinical tests were conducted with the 1,3-dimethyl-4-(γ-[4(o-methoxyphenyl)-piperazinyl-(1)]-propylamino)- uracil on two female and three male patients, with doses of 10, 20, 40 and 60 mg orally administered.

[10] = test system: systolic and diastolic blood pressure; experiment: Clinical test, blood pressure in patients; assay type: in vivo, human
Experimental: as §1
Attached Diagrams 1 and 2 show the changes of the blood pressure under the effect of various doses of 1,3-dimethyl-4-(γ-[4-(o-methoxyphenyl)-piperazinyl-(1)]-propylamino)-uracil. […] Diagram 2shows the changes of the diastolic blood pressure with the same doses of the uracil compound at an average starting diastolic blood pressure (RRd) of 95.3 mm Hg plotted against the dose of the uracil compound.

Solubility = assay type: physicochemical
mouse [11] = experiment: SD50, sedation symptoms, mouse; assay type: in vivo; conditions: mouse, oral; dose at which 50% show inhibition of spontaneous motility, sedation, muscle relaxation, loss of gripping; read-out: SD50 (the source's name)
Excerpt: b = Dose, at which at an average 50% of the mice show the following symptoms: inhibition of the spontaneous motility, sadation, muscle relaxation, loss of gripping and holding ability on a horizontal wire net.

in vivo = conditions: mouse
mouse [12] = experiment: Analgesic effect, thermal stimulation of the tail of the mouse; assay type: in vivo; conditions: oral, 25% retardation, read-out: Retardation of the defense reaction upon thermal stimulation of the tail of the mouse by 25%
Excerpt: The analgesic effect was thereby determined as the delay in the reaction upon thermal stimulation of the tail of the mouse.

Row | SMILES | mechanism of phentolamine [1] | ED30 [2] | ED50 [2] | ED50 [3] | ED50 [4] | ED30 [5] | ED50 [5] | lowering of the blood pressure by 30% by [6] | inhibition in vivo at 25 mg/kg (mouse [7]) | change in vivo at 15 mg/kg (mouse [8]) | ED50 (mouse [9]) | compatibility (patients) | effect on perception and other sensory functions (patients) | dose response of blood pressure lowering (Diagrams 1 and 2) ([10]; doses 0 to 60 mg, average starting RRs 171.9 mm Hg, RRd 95.3 mm Hg) | difference in the effect of a dose of 20 mg and a dose of 40 mg ([10]; patients, 20 mg vs 40 mg) | lowering of the systolic and diastolic blood pressure ([10]; two female and three male patients, 10, 20, 40 and 60 mg oral) | solubility in aqueous acetone (Solubility) | ED50 (mouse [11]) | LD50 (in vivo) | ED25 (mouse [12])
1 | Cc1ccc(N(CC2=NCCN2)c2cccc(O)c2)cc1 [Phentolamine, 2-[N'-p-tolyl-N'-(m-hydroxyphenyl)-aminomethyl]-2-imidiozoline, reference compound] | specifically inhibiting the stimulating effect of adrenaline and noradrenaline, typical alpha-blocking agent | 0.1 mg/kg | 0.5 mg/kg | 0.047 mg/kg | 0.18 mg/kg | 0.1 mg/kg | 0.7 mg/kg | 0.63 |  |  |  |  |  |  |  |  |  |  |  | 
2 | COc1ccccc1N1CCN(CCCNc2cc(=O)n(C)c(=O)n2C)CC1 [Example 4, 1,3-Dimethyl-4-(γ-[4-(o-methoxyphenyl)piperazinyl-(1)]-propylamino)-uracil] |  | 0.03 mg/kg | 0.16 mg/kg | 0.36 mg/kg | 1.9 mg/kg | 0.14 mg/kg | 0.65 mg/kg | 0.71 | 36% | 71% | 52 mg/kg | excellent compatibility | no adverse effect on perception and other sensory functions | the blood pressure is progressively lowered in response to an increasing dose of the uracil compound | statistically confirmed | statistically significant lowering of the systolic and diastolic blood pressure | readily soluble in aqueous acetone | 100 mg/kg | 400 mg/kg | 2.4 mg/kg
